Patent US7674594B2, “Screening assay for inhibitors of TRPA1 activation by a lower alkyl phenol” (Redpoint Bio Corporation, priority 2006, dated 2010)
Entries after “also recorded” stand apart in the source; their conditions may differ.

Tests used:
hTRPA1 [1] = biological target: T1, hTRPA1 (Homo sapiens, UniProt O75762); experiment: Membrane potential dye fluorescence assay (FLIPR/FLEXstation), activation of hTRPA1 in transfected HEK293 cells; type: cell-based
T1 construct: The full length hTRPA1 was amplified by PCR with Kpn1 and Xho1 restriction enzyme sites; expressed in transfected cells; also transient transfection
T1 sequence (O75762 whole entry): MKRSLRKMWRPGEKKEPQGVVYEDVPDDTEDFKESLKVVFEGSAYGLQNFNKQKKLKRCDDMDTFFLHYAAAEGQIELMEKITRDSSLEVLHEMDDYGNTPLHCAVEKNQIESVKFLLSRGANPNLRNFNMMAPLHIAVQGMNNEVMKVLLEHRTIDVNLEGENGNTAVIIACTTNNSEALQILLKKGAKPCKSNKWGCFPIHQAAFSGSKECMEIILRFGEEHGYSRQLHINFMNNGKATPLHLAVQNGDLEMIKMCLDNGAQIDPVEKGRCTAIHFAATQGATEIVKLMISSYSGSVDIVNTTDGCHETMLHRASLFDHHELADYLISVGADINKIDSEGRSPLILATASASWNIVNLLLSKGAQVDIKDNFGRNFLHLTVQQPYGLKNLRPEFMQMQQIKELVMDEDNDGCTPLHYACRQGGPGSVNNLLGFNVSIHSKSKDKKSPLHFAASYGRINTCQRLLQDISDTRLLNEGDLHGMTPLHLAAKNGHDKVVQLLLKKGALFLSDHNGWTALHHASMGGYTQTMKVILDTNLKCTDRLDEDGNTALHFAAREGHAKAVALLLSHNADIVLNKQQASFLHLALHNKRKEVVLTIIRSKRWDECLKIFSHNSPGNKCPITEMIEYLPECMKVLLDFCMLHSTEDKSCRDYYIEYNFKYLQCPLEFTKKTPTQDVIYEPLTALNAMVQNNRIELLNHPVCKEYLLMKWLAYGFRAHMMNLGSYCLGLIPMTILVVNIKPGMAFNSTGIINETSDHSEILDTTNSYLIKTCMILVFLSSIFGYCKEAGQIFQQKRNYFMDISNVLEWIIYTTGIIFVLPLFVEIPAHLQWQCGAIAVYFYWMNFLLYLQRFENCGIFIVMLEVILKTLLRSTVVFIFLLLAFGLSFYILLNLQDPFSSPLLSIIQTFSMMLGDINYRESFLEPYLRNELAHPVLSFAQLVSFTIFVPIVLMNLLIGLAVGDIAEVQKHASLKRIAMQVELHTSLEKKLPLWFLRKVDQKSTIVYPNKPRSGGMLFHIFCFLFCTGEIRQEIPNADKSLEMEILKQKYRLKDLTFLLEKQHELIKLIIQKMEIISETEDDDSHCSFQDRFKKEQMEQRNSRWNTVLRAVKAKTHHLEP
Protocol: Once expression of TRPA1 was confirmed, 100 μl of the Blue or Red FMP dye (Molecular Devices) was added to each well of plates seeded with the transiently transfected cells. The plate was then incubated in a 37° C./5% CO2 incubator for 1 hour. The plate was read in a FLEXStation microplate reader (Molecular Devices) with an excitation of 530 nm and an emission of 565 nm. The fluorescence was monitored for 3 minutes upon exposure of the cells to a TRPA1 activating agent (e.g., cinnamaldehyde).
(§1) Samples in a 384-well plate were evaluated in a 5 minute assay on the FLIPR-Tetra™ (Molecular Devices). The assay was performed on a FLIPR™ using the excitation 510-545 nm and emission 565-625 nm filter sets. TRPA1-Transfected HEK cells, 15,000/well, were seeded overnight on poly-D-lysine coated 384 well plates in 20 μl media. Membrane Potential Assay Dye Red (Molecular Devices), 20 μl/well, was added and the plates incubated for 1 hour in a 37° C. and 5% CO2 incubator. The plates were then removed from the incubator and equilibrated to room temperature for 15 minutes before reading on the FLIPR®. The plates were read on the FLIPR® for a total of 3 minutes. Baseline fluorescence was obtained on the FLIPR® for 10 seconds followed by addition (typically 10 μl) of each agonist by the FLIPR® and read for an additional 2 minutes and 50 seconds.

parental HEK293 cells = experiment: Membrane potential dye fluorescence assay in parental (non-transfected) HEK293 cells; type: cell-based, human; conditions: cells not expressing TRPA1
[2] = Human sensory panel, detection threshold in water; type: in vivo; conditions: FIG. 2B
hTRPV1 = biological target: T2, hTRPV1 (Homo sapiens, UniProt Q8NER1); experiment: Membrane potential dye fluorescence assay, HEK293 cells expressing hTRPV1; type: cell-based; conditions: HEK293, increasing concentrations, FIG. 6
T2 construct: expressed in transfected cells
T2 sequence (Q8NER1 whole entry): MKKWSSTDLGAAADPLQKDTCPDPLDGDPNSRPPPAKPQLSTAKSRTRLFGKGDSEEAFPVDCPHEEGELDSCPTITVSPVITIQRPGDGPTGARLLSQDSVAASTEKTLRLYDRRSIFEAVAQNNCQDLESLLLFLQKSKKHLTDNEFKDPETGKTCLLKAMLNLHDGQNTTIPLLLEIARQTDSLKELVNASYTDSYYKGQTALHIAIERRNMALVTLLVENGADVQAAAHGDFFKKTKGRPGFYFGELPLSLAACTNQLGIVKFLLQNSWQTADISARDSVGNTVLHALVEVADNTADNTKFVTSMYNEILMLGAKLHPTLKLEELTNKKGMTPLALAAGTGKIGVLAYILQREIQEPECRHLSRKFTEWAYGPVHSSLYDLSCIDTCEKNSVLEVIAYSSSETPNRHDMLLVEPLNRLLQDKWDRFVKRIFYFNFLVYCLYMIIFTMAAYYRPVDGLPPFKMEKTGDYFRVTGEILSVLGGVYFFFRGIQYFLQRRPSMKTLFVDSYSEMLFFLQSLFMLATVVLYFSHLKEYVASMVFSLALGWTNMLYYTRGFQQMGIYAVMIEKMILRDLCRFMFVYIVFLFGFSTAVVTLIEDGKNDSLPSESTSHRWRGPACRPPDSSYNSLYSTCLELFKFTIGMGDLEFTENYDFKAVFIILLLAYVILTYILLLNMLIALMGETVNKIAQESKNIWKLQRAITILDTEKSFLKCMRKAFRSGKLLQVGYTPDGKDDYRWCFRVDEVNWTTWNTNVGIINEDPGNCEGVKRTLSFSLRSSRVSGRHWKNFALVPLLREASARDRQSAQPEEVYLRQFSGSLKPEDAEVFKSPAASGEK
Protocol: as §1
(§2) HEK293 cells were stably transfected with one of hTRPA1, hTRPV1 or hTRPM5. CHO cells were stably transfected with one of hTRPM4B or TRPM5. Parental HEK293 and CHO cells were also used as a negative control.

hTRPM4B = biological target: T3, hTRPM4B (Homo sapiens, UniProt Q8TD43); experiment: Membrane potential dye fluorescence assay, CHO cells expressing hTRPM4B; type: cell-based; conditions: CHO, increasing concentrations, FIG. 6
T3 construct: expressed in transfected cells
T3 sequence (Q8TD43 whole entry): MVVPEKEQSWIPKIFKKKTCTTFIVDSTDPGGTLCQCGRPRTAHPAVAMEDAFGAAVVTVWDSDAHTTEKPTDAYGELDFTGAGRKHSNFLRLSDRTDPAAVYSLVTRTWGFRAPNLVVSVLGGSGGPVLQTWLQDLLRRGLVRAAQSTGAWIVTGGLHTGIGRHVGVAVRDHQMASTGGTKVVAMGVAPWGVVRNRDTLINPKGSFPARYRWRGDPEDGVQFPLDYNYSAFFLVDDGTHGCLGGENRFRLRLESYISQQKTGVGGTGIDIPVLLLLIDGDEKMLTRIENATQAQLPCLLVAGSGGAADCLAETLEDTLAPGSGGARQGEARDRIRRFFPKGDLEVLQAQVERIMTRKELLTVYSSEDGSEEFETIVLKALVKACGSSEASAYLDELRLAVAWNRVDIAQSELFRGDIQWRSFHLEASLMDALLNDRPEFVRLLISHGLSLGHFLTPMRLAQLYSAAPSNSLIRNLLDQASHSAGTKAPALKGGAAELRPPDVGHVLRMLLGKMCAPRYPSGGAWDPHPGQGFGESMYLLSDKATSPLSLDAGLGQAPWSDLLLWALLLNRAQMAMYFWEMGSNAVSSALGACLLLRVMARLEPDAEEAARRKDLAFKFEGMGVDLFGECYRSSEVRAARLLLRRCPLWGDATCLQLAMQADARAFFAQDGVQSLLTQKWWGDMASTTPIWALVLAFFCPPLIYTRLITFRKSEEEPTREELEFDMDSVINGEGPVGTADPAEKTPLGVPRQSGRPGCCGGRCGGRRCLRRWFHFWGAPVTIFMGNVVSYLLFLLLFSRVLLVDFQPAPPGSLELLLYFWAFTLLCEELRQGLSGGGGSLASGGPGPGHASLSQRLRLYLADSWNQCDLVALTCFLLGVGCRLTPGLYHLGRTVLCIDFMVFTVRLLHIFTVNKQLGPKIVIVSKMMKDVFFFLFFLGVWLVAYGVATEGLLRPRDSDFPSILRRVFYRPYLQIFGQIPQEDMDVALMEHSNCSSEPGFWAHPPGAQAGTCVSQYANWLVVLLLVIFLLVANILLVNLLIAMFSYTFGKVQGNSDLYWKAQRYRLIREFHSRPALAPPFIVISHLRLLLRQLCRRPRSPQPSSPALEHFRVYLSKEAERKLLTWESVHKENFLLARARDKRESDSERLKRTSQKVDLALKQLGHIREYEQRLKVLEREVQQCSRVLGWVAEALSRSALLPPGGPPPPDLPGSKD
Protocol: as §1, §2

hTRPM5 = biological target: T4, hTRPM5 (Homo sapiens, UniProt Q9NZQ8); experiment: Membrane potential dye fluorescence assay, HEK293 or CHO cells expressing hTRPM5; type: cell-based; conditions: increasing concentrations, FIG. 6
T4 construct: expressed in transfected cells
T4 sequence (Q9NZQ8 1-1165): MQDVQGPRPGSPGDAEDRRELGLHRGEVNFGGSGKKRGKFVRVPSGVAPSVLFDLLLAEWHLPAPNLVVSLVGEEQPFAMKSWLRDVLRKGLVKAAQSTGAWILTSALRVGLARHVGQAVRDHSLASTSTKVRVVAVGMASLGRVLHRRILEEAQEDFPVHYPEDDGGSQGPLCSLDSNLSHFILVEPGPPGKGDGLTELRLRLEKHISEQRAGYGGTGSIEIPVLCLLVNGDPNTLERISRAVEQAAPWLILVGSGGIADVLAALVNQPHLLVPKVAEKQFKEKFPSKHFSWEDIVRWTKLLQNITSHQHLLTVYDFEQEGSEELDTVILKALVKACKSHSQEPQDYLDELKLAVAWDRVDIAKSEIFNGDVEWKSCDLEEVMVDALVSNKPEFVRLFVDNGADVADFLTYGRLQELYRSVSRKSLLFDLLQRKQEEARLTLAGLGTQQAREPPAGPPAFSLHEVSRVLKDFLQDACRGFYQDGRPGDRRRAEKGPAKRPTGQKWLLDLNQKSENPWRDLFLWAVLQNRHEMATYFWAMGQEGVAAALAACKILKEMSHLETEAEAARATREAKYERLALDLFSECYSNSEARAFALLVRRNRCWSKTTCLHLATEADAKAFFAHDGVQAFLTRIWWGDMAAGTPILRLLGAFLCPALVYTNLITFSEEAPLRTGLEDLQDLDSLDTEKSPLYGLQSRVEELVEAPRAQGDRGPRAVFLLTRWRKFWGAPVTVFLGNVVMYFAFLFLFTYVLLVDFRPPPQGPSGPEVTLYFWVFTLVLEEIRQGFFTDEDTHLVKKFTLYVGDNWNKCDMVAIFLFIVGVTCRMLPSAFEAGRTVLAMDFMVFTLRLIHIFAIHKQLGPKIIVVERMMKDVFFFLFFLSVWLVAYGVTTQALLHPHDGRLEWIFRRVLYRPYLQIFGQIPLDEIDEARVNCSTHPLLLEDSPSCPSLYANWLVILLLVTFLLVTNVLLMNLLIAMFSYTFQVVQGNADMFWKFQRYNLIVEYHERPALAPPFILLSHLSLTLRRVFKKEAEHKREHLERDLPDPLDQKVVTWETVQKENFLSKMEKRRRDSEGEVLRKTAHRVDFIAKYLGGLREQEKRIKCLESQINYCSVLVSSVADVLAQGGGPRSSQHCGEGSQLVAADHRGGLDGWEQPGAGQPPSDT
Protocol: as §1, §2

mice = experiment: Taste aversion (lick) assay in mice; type: in vivo, mouse; conditions: mice, increasing concentrations
Protocol: In this assay, the ability of identified lower alkyl phenols to evoke taste aversion in mice was measured. Mice were exposed to increasing concentrations of lower alkyl phenols.

hTRPA1 [3] = biological target: T1, hTRPA1; experiment: siRNA knockdown of hTRPA1 in hTRPA1 HEK293 cells, membrane potential dye response; type: cell-based; conditions: increasing concentrations
Protocol: HEK293 cells were transiently transfected with one of siRNA for hTRPA1, and one of Silencer pre-designed and validated siRNA (Ambion), GAPDH or negative siRNA control. 1×10^6 hTRPA1 stably transfected HEK 293 cells were plated in 35 mm dishes overnight. The next day 10 μM of each siRNA was transfected into these cells using siPORT Amine (Ambion) and incubated overnight. The following day, transfected cells were trypsinized and seeded into 384-well black, clear bottom, poly-D-lysine plates (Corning) at a density of 15,000 cells/well in a 20 μl volume and incubated in a 37° C./5% CO2 incubator overnight.
The cells were then loaded with membrane potential sensitive dye and subjected to the fluorescence assay described in Example 2.

## Cc1ccc(C(C)C)c(O)c1 [Thymol]
hTRPA1 [1]; at 10 μM, FIG. 3B
  activation of TRPA1 over standard value from cells not expressing TRPA1: about 7 fold
hTRPA1 [1]; hTRPA1 HEK293 cells, increase in fluorescence of membrane potential dye
  TRPA1 activation / agonist activity (in words): at a level similar to that of cinnamaldehyde; also recorded: generated an increase in relative fluorescence
Parental HEK293 cells
  response of parental HEK293 cells (in words): no change in activation
[2]
  average detection threshold in water: approximately 5 μM
hTRPV1
  response of cells expressing hTRPV1 (in words): did not generate the same increase in relative fluorescence
hTRPM4B
  response of cells expressing hTRPM4B (in words): did not generate the same increase in relative fluorescence
hTRPM5
  response of cells expressing hTRPM5 (in words): did not generate the same increase in relative fluorescence
mice
  taste aversion, licks/trial (in words): a decrease in licks/trial
hTRPA1 [3]
  fluorescence response of cells transfected with hTRPA1 siRNA versus GAPDH or negative siRNA control (in words): did not increase as much as
